Measured values published in patent US9585867B2, “Cannabinod formulation for the sedation of a human or animal” (priority 2015, dated 2017).
Like-named read-outs stand apart in the source and are kept apart here.

Legend:
[1] = system: cannabinoid receptor; settings: cited from earlier work
[2] = Inventor experimentation: intermuscular injection of tetrahydrocannabinol, incapacitation; format: in vivo, human; settings: intermuscular injection of 5.0 mg; overall healthy, 100 kg person
Protocol: If it is unnecessary to “immediately”, or to “near-immediately”, incapacitate a recipient, the inventive formulation may strictly consist of cannabinoids such as tetrahydrocannabinol. During instant inventor experimentation, an intermuscular injection of 5.0 mg of tetrahydrocannabinol rendered an overall healthy, 100 kg person, fully incapacitated within 10-30 seconds, with its effects lasting approximately four-to-six hours.

[3] = system: monkeys; experiment: Repeated intravenous study with emulsified tetrahydrocannabinol in monkeys; format: in vivo; settings: near-pure tetrahydrocannabinol
Protocol: Subsequently, intravenous studies were repeated using tetrahydrocannabinol emulsified in a sesame oil, polysorbate 80, or saline vehicles at 15 mg/ml or 40 mg/ml. The emulsions were administered at a uniform rate of 2 ml/15 sec. Doses administered were 1, 4, 16, 64, 92, 128, 192 and 256 mg/kg. All monkeys injected with 92 mg/kg or less survived and completely recovered from all effects within two to four days. An analogous intravenous dosage for a 100 kg human would be 9,200 mg (9.2 g) of near-pure tetrahydrocannabinol. All monkeys injected with 128 mg/kg or more succumb within thirty minutes for all but one subject, which took one-hundred-and-eighty minutes to expire. An analogous lethal intravenous dosage for a 100 kg human would be 12,800 mg (12.8 g) of near-pure tetrahydrocannabinol.
Histopathological changes found in the lungs of the deceased monkeys were like those described after the previous intravenous experiment. […] Behavioral changes preceding death were salivation, prostration, coma, and tremors.
Behavioral and physiological changes described clinically in the surviving monkeys followed a consistent developmental sequence and were roughly dose related in severity and duration. Onset was fifteen minutes following injection and duration was up to forty-eight hours. Huddled posture and lethargy were the most persistent changes. Constipation, anorexia, and weight loss were noted. […]

[4] = system: mice; settings: cited from earlier work
[5] = system: rats; settings: cited from earlier work
[6] = system: laboratory animals; settings: cited from earlier work
[7] = system: dogs; settings: cited from earlier work
[8] = system: monkeys; settings: cited from earlier work
[9] = system: monkeys; settings: cited from earlier work; remark: listed apart in the source
[10] = system: dog; settings: cited from earlier work
[11] = system: monkey; settings: cited from earlier work
[12] = intravenous emulsion 15 or 40 mg/ml, 2 ml/15 sec

CCCCCCC(C)(C)c1ccc([C@@H]2C[C@H](O)CC[C@H]2CCCO)c(O)c1 [CP-55940]
potency relative to phyto-cannabinoid THC [1]: many times more potent

CCCCCCC(C)(C)c1cc(O)c2c(c1)OC(C)(C)[C@@H]1CC=C(CO)C[C@@H]21 [HU-210]
potency relative to phyto-cannabinoid THC [1]: about 100 times

CCCCCc1cc(O)c2c(c1)OC(C)(C)[C@@H]1CCC(C)=C[C@@H]21 [tetrahydrocannabinol]
duration of effects [2]: four-to-six
time to full incapacitation [2]: 10 to 30 s
analogous intravenous dosage for a 100 kg human (survived dose) ([3]; extrapolated from 92 mg/kg in monkeys): 9,200 mg
analogous lethal intravenous dosage for a 100 kg human ([3]; extrapolated from 128 mg/kg in monkeys): 12,800 mg
LD50 dose [4]: 28.6 mg per 42.47 kg of body weight
LD50 dose [5]: 28.6 mg per 42.47 kg of body weight
time to lethality after intravenous injection ([5]; intravenous): within minutes
lowest intravenous dosage which causes death ([6]; intravenous): approximately 1000 mg per kg of body weight
typical lethal oral dosage ([6]; oral): 225-450 mg per kg of body weight
time to complete recovery of survivors ([7]; dogs that survived the intravenous injection): five to nine
minimal lethal intravenous dose ([7]; dogs, depending upon concentration): 25 to 99 mg/kg
time to lethality after intravenous injection ([7]; dogs, intravenous): within minutes
acute one dose LD50 ([7]; intravenous, dogs): 100 mg/kg
acute one dose LD50 ([8]; intravenous, monkeys, depending on concentration of the solution): 15.6 to 62.5 mg/kg
time to complete recovery of survivors ([8]; monkeys that survived the intravenous injection): five to nine
minimal lethal intravenous dose ([8]; monkeys, depending upon concentration): 3.9 to 15.5 mg/kg
time to lethality after intravenous injection ([8]; monkeys, intravenous): within minutes
fatalities ([9]; 92 mg/kg intravenously, monkeys): no fatalities
time to death ([9]; 128 mg/kg or more, the one remaining subject): one-hundred-and-eighty
dose at which all monkeys succumb [9, 12]: ≥ 128 mg/kg
dose at which all monkeys survived [9, 12]: ≤ 92 mg/kg
time to complete recovery from all effects ([9]; monkeys injected with 92 mg/kg or less): two to four
time to death ([9]; monkeys injected with 128 mg/kg or more, all but one subject): thirty
time to severe respiratory depression and bradycardia after injection ([9]; monkeys that died): five
duration of behavioral and physiological changes ([9]; surviving monkeys): up to forty-eight
onset of behavioral and physiological changes following injection ([9]; surviving monkeys): fifteen
time of maximal hypothermia, bradycardia and decreased respiratory rate post injection ([9]; surviving monkeys): two-to-six
nonlethal oral consumption [10]: 3 g/kg
nonlethal oral consumption [11]: 3 g/kg
